Laboratory results published in ChEMBL document CHEMBL1147696, “Discovery of bitriazolyl compounds as novel antiviral candidates for combating the tobacco mosaic virus” (2006).

What was measured:
Type in all cases: functional
Tobacco mosaic virus [1] = experiment: Antiviral activity against TMV; set-up: concentration or dose not given beside the values
Tobacco mosaic virus [2] = experiment: Induction of systemic acquired resistance of tobacco plant against TMV at 100 ug/ml by soil treatment
Tobacco mosaic virus [3] = experiment: Induction of systemic acquired resistance of tobacco plant against TMV at 100 ug/ml by leaf spray treatment

SMILES | Activity (Tobacco mosaic virus [1]) [%] | Activity (Tobacco mosaic virus [2]) [%] | Activity (Tobacco mosaic virus [3]) [%]
CCCCCc1ccc(-c2cn(-c3n[nH]c(C(=O)OC)n3)nn2)cc1 | 23 | – | –
COC(=O)c1n[nH]c(-n2cc(-c3ccccc3)nn2)n1 | 63 | 10 | 10
CCOC(=O)c1cn(-c2n[nH]c(C(=O)OC)n2)nn1 | 20 | – | –
COC(=O)c1n[nH]c(-n2cc(C3(O)CCCCC3)nn2)n1 | 17 | – | –
COc1ccc(-c2cn(-c3n[nH]c(C(N)=O)n3)nn2)cc1 | 0 | – | –
CCCCCc1ccc(-c2cn(-c3n[nH]c(C(N)=O)n3)nn2)cc1 | 28 | – | –
CSC(=O)c1cccc2nnsc12 [ACIBENZOLAR-S-METHYL] | – | 96 | 95
NC(=O)c1n[nH]c(-n2cc(-c3ccccc3)nn2)n1 | 0 | – | –
COC(=O)c1n[nH]c(-n2cc(C3=CCCCC3)nn2)n1 | 75 | 0 | 0
NC(=O)c1cn(-c2n[nH]c(C(N)=O)n2)nn1 | 0 | – | –
NC(=O)c1n[nH]c(-n2cc(C3=CCCCC3)nn2)n1 | 7 | – | –
COC(=O)c1n[nH]c(-n2cc(-c3ccc(C)cc3)nn2)n1 | 10 | – | –
Cc1ccc(-c2cn(-c3n[nH]c(C(N)=O)n3)nn2)cc1 | 6 | – | –
NC(=O)c1n[nH]c(-n2cc(-c3ccc(F)cc3)nn2)n1 | 0 | – | –
NC(=O)c1n[nH]c(-n2cc(CO)nn2)n1 | 8 | – | –
COC(=O)c1n[nH]c(-n2cc(C3(O)CCCC3)nn2)n1 | 10 | – | –
NC(=O)c1n[nH]c(-n2cc(C3(O)CCCCC3)nn2)n1 | 0 | – | –
COC(=O)c1n[nH]c(-n2cc(-c3ccc(OC)cc3)nn2)n1 | 15 | – | –
NC(=O)c1n[nH]c(-n2cc(C3(O)CCCC3)nn2)n1 | 13 | – | –
COC(=O)c1n[nH]c(-n2cc(COC(C)=O)nn2)n1 | 36 | – | –
O=C1NCNC(=O)N1 | 45 | – | –
COC(=O)c1n[nH]c(-n2cc(-c3ccc(F)cc3)nn2)n1 | 12 | – | –
NC(=O)c1ncn([C@@H]2O[C@H](CO)[C@@H](O)[C@H]2O)n1 [RIBAVIRIN] | 49 | – | –
